In publication PMC2965138, “DEB025 (Alisporivir) Inhibits Hepatitis C Virus Replication by Preventing a Cyclophilin A Induced Cis-Trans Isomerisation in Domain II of NS5A” (PLoS ONE, 2010):
Values joined by “and” are separate entries in the source; they are usually repeats but may differ in a detail not shown here. Equal values may be shown once. Read-outs that look alike come from different tables or passages of the source.

How the values were obtained:
[1] = system: recombinant replicon with DEB025^res NS5B gene in Huh7-Lunet cells; type: cell-based, Hepatitis C virus genotype 1b; settings: entire NS5B gene of DEB025^res replicon in WT background, control NS5B from WT cells
Procedure: (§1) For comparative reasons also the original unmanipulated vector was included in the analysis. […] Data are mean values ± standard deviations for at least three independent experiments. (C) Replication fitness of the different recombinant replicons. Huh7-Lunet cells were transiently transfected with each of the indicated replicon constructs and replicon RNA replication was quantified by means of a luciferase assay for 4 days post transfection. Data are normalized to the 4 h-value post electroporation to account for differences in electroporation efficiency and is expressed as percentage of the WT-value at 96 h post electroporation. Data are mean values ± standard deviations for at least two independent experiments.
(§2) RNA was isolated from either DEB025^res or WT HCV subgenomic replicon cells using the RNeasy mini kit (Qiagen). First-strand cDNA was synthesized using SuperScript II RT (Invitrogen). The NS5A or NS5B-containing regions were amplified in an AccuPrime Pfx DNA polymerase reaction (Invitrogen) for subsequent cloning into the WT Con1 plasmid. All constructs were sequenced to verify the correct manipulation.
Huh7-Lunet single-cell suspensions were prepared by trypsinization, washed twice with Opti-MEM® I (Invitrogen) and then resuspended at 1×10∧7 cells per ml in Cytomix containing 2 mM ATP and 5 mM glutathione. […]

[2] = system: JFH1-derived subgenomic replicon (GT2a); settings: replicon with mutation near NS5A/NS5B cleavage site (position 464); cited from earlier work
[3] = system: WT HCV subgenomic replicon (Con1-GT1b) in Huh 9–13 cells
Excerpt: Huh7 cells containing subgenomic HCV genotype 1b replicon I377/NS3-3′/wt (Huh 9–13) [47], [48] and I389luc-ubi-neo/NS3-3′/5.1 (Huh 5–2) were used to select for resistance.

[4] = system: mutant GT1b subgenomic luciferase replicons in Huh7-Lunet cells; type: cell-based, Hepatitis C virus genotype 1b; settings: for fold reduction in sensitivity (based on EC50-values) compared to WT replicon: luciferase assay; for sensitivity of the generated mutant replicons compared to WT: site-directed mutant replicons, data not shown
calcineurin = settings: cited from earlier work
Excerpt: (§3) Several CsA-analogues, i.e. NIM811 [19], DEB025 and SCY-635 [20], are currently in preclinical and clinical development. […] We reported earlier on the potent in vitro anti-HCV activity of DEB025 [22] and on the particular characteristics of its anti-HCV activity.

[5] = cited from earlier work
Excerpt: as §3

HCV = settings: cited from earlier work; for viral load reduction: genotype 1 null/partial responders, 29 days; for decrease in viral load: phase II
Excerpt: as §3

[6] = system: recombinant replicon with WT NS5A sequence in Huh7-Lunet cells; settings: read-out: EC50, inhibition of replicon replication, replicon engineered to contain WT NS5A sequence, transient, 72 h, luciferase, mean ± SD
Procedure: (§4) The antiviral phenotype of this construct was evaluated in comparison with a construct into which the NS5A region derived from WT Huh 9–13 cells (which were cultured in parallel), was swapped.
as §1, §2
(§5) Huh7-Lunet single-cell suspensions were prepared by trypsinization, washed twice with Opti-MEM® I (Invitrogen) and then resuspended at 1×10∧7 cells per ml in Cytomix containing 2 mM ATP and 5 mM glutathione. Ten µg of in vitro transcribed RNA was mixed with 400 µl cell suspension in a cuvette with a gap width of 4 mm (VWR International) and an ECM 830 Electro Square Porator™ (BTX Harvard Apparatus) was used to deliver 5 pulses at 900 V, 99 µsec. Cells were immediately transferred to 20 ml complete DMEM and seeded as required for the assay. Briefly, 100 or 700 µl aliquots of the cell suspension were seeded in a 96- or 24-well plate (Iwaki), respectively, filled with serial dilutions of the antiviral molecule in complete DMEM.

[7] = system: recombinant replicon with DEB025^res NS5A sequence in Huh7-Lunet cells
Procedure: as §4, §1, §2, §5

[8] = system: CsA^res HCV subgenomic replicon (Con1-GT1b) in Huh 9–13 cells; settings: read-out: EC50, inhibition of HCV replicon RNA, CsA^res Huh 9-13 culture, 72 h treatment, RT-qPCR, mean ± SD, at least three independent experiments
Procedure: (§6) Replicon-containing cells were continuously passaged in these double-selection media. When cultures had adapted to replication in the presence of a particular concentration of DEB025 (i.e. no more massive cell death) the concentration was increased in steps of 0.21 µM (typically every 3 passages).
(§7) HCV replicon RNA was quantified by means of RT-qPCR and is expressed as the percentage of HCV replicon RNA of the untreated control cells. Data are mean values±standard deviations for at least three independent experiments.
(§8) When cells suffered from compound pressure, G418 pressure was removed till cells recovered. […] Four independent resistance selection experiments were carried out, three with Huh 9–13 replicons and one with Huh 5–2 replicons.
(§9) HCV replication assays were performed and analysed using published procedures.

[9] = system: DEB025^res HCV subgenomic replicon (Con1-GT1b) in Huh 9–13 cells; settings: read-out: EC50, inhibition of HCV replicon RNA, DEB025^res Huh 9-13 culture, 72 h treatment, RT-qPCR, mean ± SD, at least three independent experiments
Procedure: as §6, §7, §8, §9

[10] = system: replicons resistant to DAA inhibitors of different classes; settings: cited from earlier work
[11] = system: WT replicon RNA in Huh7-Lunet cells; settings: read-out: EC50, inhibition of replicon RNA, Huh7-Lunet stably transfected with WT replicon RNA, RT-qPCR, mean ± SD
Procedure: (§10) HCV replicon RNA was quantified by means of RT-qPCR and is expressed as the percentage of HCV replicon RNA of the untreated control cells. Data are mean values ± standard deviations for at least three independent experiments.
(§11) One day before lipofection, Huh7-Lunet cured cells were seeded in a 25 cm^2 flasks at a cell density of 5.26×10^5 cells. Just before transfection, the cells were washed once with opti-MEM® I (Invitrogen) and incubated for 4 h at 37°C with transfection medium containing: 26.3 µg of RNA, DMRIE-C Reagent (Invitrogen) and opti-MEM I serum free medium. Four hours post transfection, medium was replaced by culture medium without G418. Depending on the proliferation of the cells, G418 was gradually added to the cultures (to a final concentration of 1 mg/ml) to generate stable cell lines.

[12] = system: DEB025^res replicon RNA in Huh7-Lunet cells
Procedure: as §10, §11

CypA = target: T1, CypA (Homo sapiens, UniProt P62937); settings: cited from earlier work
T1 construct: made in house
T1 sequence (P62937 whole entry): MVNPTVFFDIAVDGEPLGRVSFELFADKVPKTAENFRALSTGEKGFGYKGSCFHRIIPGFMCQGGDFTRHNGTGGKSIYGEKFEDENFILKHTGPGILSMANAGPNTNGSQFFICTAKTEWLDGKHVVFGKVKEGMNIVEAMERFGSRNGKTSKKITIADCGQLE

[13] = system: HCV subgenomic replicon (Con1-GT1b) in Huh 9–13 cells
[14] = system: DEB025^res HCV subgenomic replicon (Con1-GT1b) in Huh 9–13 cells; set-up: method as in PMID 19104013; settings: cited from earlier work
Procedure: as §6

[15] = system: CsA^res HCV subgenomic replicon (Con1-GT1b) in Huh 9–13 cells; set-up: method as in PMID 19104013; settings: cited from earlier work

Procedure for CypA-NS5A interaction: We next studied whether the NS5A mutations, either alone or in combination, have an influence on (i) the binding of NS5A to CypA and (ii) the sensitivity of the CypA-NS5A interaction to DEB025.
Glutathione beads were added to the GST-CypA/NS5A-His mixture for 30 min at 4°C and washed. Bound material was eluted and analyzed by Western blotting using anti-His and anti-CypA antibodies. (C) The percentage of NS5A pulled down in the presence of increasing concentrations of DEB025, relative to the amount of NS5A pulled down in the absence of the drug.
NS5A mutants were created by site-directed mutagenesis.
Pull-down experiments were conducted as described previously [55]. Briefly, GST-CypA (100 ng) was mixed with 10 ng of NS5A-His in a total volume of 200 µl for 3 h at 4°C on a rotating wheel. Glutathione beads (25 µl) were added to the GST-CypA/NS5A-His mixture for 30 min at 4°C and samples were washed 3 times thereafter. […] Bound material was then analyzed by Western blotting using anti-CypA and anti-His antibodies as described previously [9]. […] To calculate the percent of NS5A pulled down relative to the amount of NS5A pulled down in the absence of the drug scans of ECL-developed films were analyzed by Bio-Rad densitometer model 620 and quantified by Bio-Rad Program Manager software (Bio-Rad Laboratories, Inc., Hercules, CA). […]

## C/C=C/C[C@@H](C)[C@@H](O)[C@H]1C(=O)N[C@@H](CC)C(=O)N(C)[C@H](C)C(=O)N(CC)[C@@H](C(C)C)C(=O)N[C@@H](C(C)C)C(=O)N(C)[C@@H](CC(C)C)C(=O)N[C@@H](C)C(=O)N[C@H](C)C(=O)N(C)[C@@H](CC(C)C)C(=O)N(C)[C@@H](CC(C)C)C(=O)N(C)[C@@H](C(C)C)C(=O)N1C [DEB025, Alisporivir]
[1]
  effect of DEB025^res NS5B gene in WT background on antiviral activity: No reduction in antiviral activity
[2]
  fold reduced sensitivity of resistant JFH1-derived replicon: ~5 fold
[3]; 2.05 µM
  effect on WT replicon replication at a fixed concentration: completely inhibits WT replicon replication
[3]; read-out: EC50, inhibition of HCV replicon RNA, WT Huh 9-13 culture, 72 h treatment, RT-qPCR, mean ± SD, at least three independent experiments, SD
  EC50: 30 ± 10 nM
CypA-NS5A interaction; GST-CypA and His-tagged NS5A pull down, increasing drug concentrations
  effect on the CypA-NS5A interaction: inhibit the CypA-NS5A interaction in a dose-dependent manner
CypA-NS5A interaction; WT versus mutated NS5A, pull down
  effect on interactions between CypA and WT or mutated NS5A: equally disrupted
[4]
  fold change in sensitivity compared to WT: 1.28 fold and 1.93 fold
[4]; mutant A241P + R262Q + R318W + D320E
  fold reduction in sensitivity (based on EC50-values) compared to WT replicon: 4.33 fold
[4]; mutant NS5A D320E
  fold reduction in sensitivity (based on EC50-values) compared to WT replicon: 3.92 fold and 3.9 fold
[4]; mutant NS5A R318W
  fold reduction in sensitivity (based on EC50-values) compared to WT replicon: ~2 fold
[4]; mutant NS5B I432V, luciferase assay (Figure S1)
  effect of NS5B I432V on antiviral activity: neither reduced the antiviral activity
[4]; mutant R318W + D320E
  fold reduction in sensitivity (based on EC50-values) compared to WT replicon: 3.79 fold
calcineurin
  inhibition of calcineurin: do not inhibit calcineurin
[5]; 1000 mg dose, returned to baseline after treatment cessation
  adverse finding: isolated and transient hyperbilirubinemia
[5]; lower doses regimens
  tolerability: very well tolerated
HCV; 400 mg daily (with initial loading dose) combined with pegIFN/RBV
  viral load reduction: −1.96 log10 IU/ml
HCV; 800 mg daily combined with pegIFN/RBV
  viral load reduction: −2.38 log10 IU/ml
HCV; phase I, HCV/HIV-coinfected patients, monotherapy 1200 mg BID, after 15 days
  mean maximal decrease in HCV viral load: −3.6 log10 IU/ml
HCV; treatment-naïve genotype 1 and 4 patients, therapy based on 1000 mg/day DEB025 (combined with pegIFN-α-2a)
  decrease in viral load: −4.75 log10 IU/ml
HCV; treatment-naïve genotype 2 and 3 patients
  decrease in viral load: up to −5.89 log10 IU/ml
[6]
  EC50: 40 ± 10 nM
[7]; read-out: EC50, inhibition of replicon replication, replicon engineered to contain DEB025^res NS5A sequence, transient, 72 h, luciferase, mean ± SD, SD
  EC50: 390 ± 150 nM
[7]; replicon with DEB025^res NS5A vs replicon with WT NS5A
  fold less active than in replicon with WT NS5A sequence: 10 fold
[8]
  EC50: 460 ± 260 nM
[9]
  EC50: 2050 ± 560 nM
[10]
  activity against replicons resistant to DAA inhibitors compared to WT: retained WT-activity
[11]
  EC50: 40 ± 10 nM
[12]; cells stably transfected with RNA from DEB025^res culture vs WT, on average
  fold less active than in WT-transfected cell line: 10 fold
[12]; read-out: EC50, inhibition of replicon RNA, Huh7-Lunet stably transfected with RNA from DEB025^res culture, RT-qPCR, mean ± SD, SD
  EC50: 440 ± 70 nM
CypA
  affinity to CypA compared with CsA: superior to that of CsA to CypA
[13]; Huh 9-13, stepwise increasing drug with G418, on average
  passages of selective pressure needed to select resistant replicons: 35 passages
[13]; Huh 9-13 / Huh 5-2, stepwise increasing drug with G418, average (four independent experiments for DEB025)
  time of selective pressure needed to select resistant replicons: 20 weeks

## C[C@@]1(O)[C@H](O)[C@@H](CO)O[C@H]1n1ccc(N)nc1=O [2′-C-methylcytidine]
[14]
  antiviral activity against DEB025^res replicons compared to WT: retained WT-antiviral activity
[15]
  antiviral activity against CsA^res replicons compared to WT: retained WT-antiviral activity
[4]
  sensitivity of the generated mutant replicons compared to WT: retained WT-activity

## CCC[C@H](NC(=O)[C@@H]1[C@H]2CCC[C@H]2CN1C(=O)[C@@H](NC(=O)[C@@H](NC(=O)c1cnccn1)C1CCCCC1)C(C)(C)C)C(=O)C(=O)NC1CC1 [VX-950]
[14]
  antiviral activity against DEB025^res replicons compared to WT: retained WT-antiviral activity
[15]
  antiviral activity against CsA^res replicons compared to WT: retained WT-antiviral activity
[4]
  sensitivity of the generated mutant replicons compared to WT: retained WT-activity

## CNC(=O)c1c(-c2ccc(F)cc2)oc2cc(N(CCO)S(C)(=O)=O)c(C3CC3)cc12 [HCV796, reference compound]
[4]
  sensitivity of the generated mutant replicons compared to WT: retained WT-activity

## [N-]=[N+]=N[C@]1(CO)O[C@@H](n2ccc(N)nc2=O)[C@H](O)[C@@H]1O [4′-azidocytidine]
[14]
  antiviral activity against DEB025^res replicons compared to WT: retained WT-antiviral activity
[15]
  antiviral activity against CsA^res replicons compared to WT: retained WT-antiviral activity

## COc1ccc2c(O[C@@H]3C[C@H]4C(=O)N[C@]5(C(=O)O)C[C@H]5/C=C\CCCCC[C@H](NC(=O)OC5CCCC5)C(=O)N4C3)cc(-c3csc(NC(C)C)n3)nc2c1 [BILN2061]
[14]
  antiviral activity against DEB025^res replicons compared to WT: retained WT-antiviral activity
[15]
  antiviral activity against CsA^res replicons compared to WT: retained WT-antiviral activity
